Assay results as given in patent US20100184809A1, “Heterocyclic FXR Binding Compounds” (PHENEX PHARMACEUTICALS AG, priority 2006, published 2010).

How the values were obtained:
[1] = Rat hepatocyte stability assay; format: in vitro ADME; conditions: hepatocytes, 37° C., 60 minute, read-out: Rat hepatocyte clearance
Experimental: Compound stability towards rat hepatocytes was determined as follows: The hepatocytes are incubated with the test compound at 37° C. Samples are removed at the appropriate time points into methanol to terminate the reaction. Following centrifugation, the supernatant is analysed by LC-MS/MS. The disappearance of test compound is monitored over a 60 minute time period. The In peak area ratio (compound peak area/internal standard peak area) is plotted against time and the gradient of the line determined. Finally, half life t1/2 and Intrinsic clearance CLint is computed by the following equations: elimination rate konstant (k)=−gradient; t1/2 (min)=0.693/k; V (μl/10^6 cells)=volume of incubation (μl)/number of cells (*10^6); CLint (μl/min/10^6cells protein)=V*0.693/t1/2.

[2] = Human microsomal stability assay; format: in vitro ADME; conditions: liver microsomes, 0.5 mg microsomal protein/ml, 10 μM compound, 37° C., read-out: Human liver microsome clearance
Experimental: Compound stability towards human liver microsomes was determined as follows: Human liver microsomal suspension (1 ml) prepared in reaction buffer at a concentration of 0.5 mg microsomal protein/ml was preincubated for 3 min at 37° C. with a NADPH-generating system (10 mM glucose 6-phosphate, 1 mM NADP+, and 1 unit/ml yeast glucose-6-phosphate dehydrogenase). The final compounds concentration is 10 μM. Boiled microsomes (5 min) served as a control. Samples (50 μl) were then taken after 0, 5, 15, 30, 45, 120 min, into 200 μl acetonitrile, centrifuged for 15 min at 8000×g to remove the protein pellet. Samples were analyzed for parent compound by HPLC. Method development: All samples for metabolic stability experiments were analyzed by HPLC. Only parent compounds were analyzed. Data analysis: The percentages of the parent compounds remaining was defined as the ratio of the parent compounds peak area at a specific point and the peak area at the first time point multiplied by 100%. The metabolic stability was evaluated by plotting the natural logarithm of the percentage parent compounds remaining versus time and performing linear regression and finally reported as clearance [μl/min/mg protein] which is reversed proportional to compound stability. Applying this protocol, Microsomal stability of examples and reference compounds was determined. (Table 7)

[3] = biological target: T1, human FXRalpha ligand binding domain (LBD) (Homo sapiens, UniProt Q96RI1); assay: FRET activity assay (ligand mediated cofactor peptide interaction, LANCE); format: biochemical; conditions: GST-FXR-LBD / biotinylated SRC-1 peptide (676-700)
T1 construct: made in house; host or cells: E. coli BL21(DE3), vector pDEST15
T1 sequence (Q96RI1 187-472 isoform Q96RI1-2): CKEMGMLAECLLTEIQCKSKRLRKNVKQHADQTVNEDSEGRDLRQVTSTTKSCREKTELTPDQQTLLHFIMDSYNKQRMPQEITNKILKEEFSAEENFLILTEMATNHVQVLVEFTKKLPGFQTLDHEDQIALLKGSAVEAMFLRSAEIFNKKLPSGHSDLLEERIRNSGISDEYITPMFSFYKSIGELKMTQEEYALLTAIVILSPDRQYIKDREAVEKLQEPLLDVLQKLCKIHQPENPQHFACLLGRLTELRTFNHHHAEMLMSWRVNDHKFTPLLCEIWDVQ
Procedure, shortened: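 GST-tagged human FXRα LBD (aa 187-472) from E. coli, with biotinylated SRC-1 peptide 676-700 (200-600 nM), Eu anti-GST and streptavidin-APC in Tris pH 7.5 buffer, 1% DMSO. One hour at room temperature in the dark, then time-resolved FRET read as the 665/615 nm ratio.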

hepatocyte CLint [1] [µL/min/1e6 cells] | microsomal CLint at 10 μM [2] [µL/min/mg] | IC50 [3] [µM] | Compound
45 | 100 |  | CC(C)c1onc(-c2c(Cl)cccc2Cl)c1COc1ccc(/C=C/c2cccc(C(=O)O)c2)c(Cl)c1 [Compound B, reference compound]
7.1 | 62 | ≤ 1 | Cc1nc(OCc2c(-c3c(Cl)cccc3Cl)noc2C(C)C)ccc1N(C)S(=O)(=O)c1ccc(C(=O)O)cc1 [Example 4, 4-(N-(6-((3-(2,6-dichlorophenyl)-5-isopropylisoxazol-4-yl)methoxy)-2-methylpyridin-3-yl)—N-methylsulfamoyl)benzoic acid]
0.7 | 14 | ≤ 1 | CC(C)c1onc(-c2c(Cl)cccc2Cl)c1COc1ccc(N(C)C(=O)c2ccc(C(=O)O)cc2)c(C(F)(F)F)n1 [Example 7, N-{6-[3-(2,6-dichloro-phenyl)-5-isopropyl-isoxazol-4-ylmethoxy]-2-trifluoromethyl-pyridin-3-yl}-N-methyl-terephthalamic acid]
 |  | ≤ 1 | CC(C)c1onc(-c2c(Cl)cccc2Cl)c1COc1ccc(N(C)Cc2ccc(C(=O)O)cc2)c(C(F)(F)F)n1 [Example 28, 4(((6-((3-(2,6-Dichlorophenyl)-5-isopropylisoxazol-4-yl)methoxy)-2-(trifluoromethyl)pyridin-3-yl)(methyl)amino)methyl)benzoic acid]
